Test results published in patent publication US20210171904A1, “CELL CULTURE METHOD AND CELL CULTURE APPARATUS” (NIKKISO CO., LTD., priority 2018, published 2021).

Experiments:
[1] = tested on: human pluripotent stem cells; assay: Real-time PCR of undifferentiation/differentiation marker gene expression (Oct4, Nanog, T, Pax6, Fox2) on the 6th day of culture; type: cell-based; conditions: ammonia 2.5 mM
Experimental: mRNA was then extracted from each cell on the 6th day of culture, using RNeasy Mini Kit (from QIAGEN N.V.), and then purified. Next, cDNA was synthesized from the thus purified mRNA, by using QuantiTect Reverse Transcription Kit (from QIAGEN N.V.). By using each cDNA as a template, and by using Thermal Cycler Dice Real Time System I (from Takara Bio Inc.), expression levels of Oct4, Nanog, T, Pax6 and Fox2 genes were measured by real-time PCR.
Proportion of expression levels of the individual genes at the individual concentration levels of ammonia were calculated, on the basis of the expression level at an ammonia concentration of 0 mM. FIG. 10 is a chart summarizing relation between the ammonia concentration and the gene expression levels. […] This confirms that keeping of the ammonia concentration at lower than 2.5 mM is effective to keep the cell in the undifferentiated state. It was also confirmed that the ammonia-induced promotion of cell differentiation may be suppressed more reliably, by keeping the ammonia concentration at 1 mM or below.

[2] = tested on: human pluripotent stem cells; assay: Cell density of human pluripotent stem cells after 5 days culture in waste-added medium (cell counter); type: cell-based; conditions: ammonium chloride added
Experimental: (§1) Onto a 24-well plate (Corning cellBIND Surface: from Corning Incorporated), seeded were 1×10^3 human pluripotent stem cells, to which a medium for pluripotent stem cell (StemFit: from Ajinomoto Co. Inc.) was added, and then cultured. To the medium before 24 hours from the start of culture, a culture substrate (iMatrix-511; from Nippi, Inc.) was added so as to adjust the concentration to 0.5 μg/ml, and also ROCK inhibitor (Y-27632: from FUJIFILM Wako Pure Chemical Corporation) was added so as to adjust the concentration to 10 μM.
After the elapse of 5 days, the number of cells in each well was measured by using TC20 full-automatic cell counter (from Bio-Rad Laboratories, Inc.), to calculate cell density. Results are illustrated in FIG. 5.
Onto a 24-well plate (Corning cellBIND Surface: from Corning Incorporated), seeded were 1×10^3 human pluripotent stem cells, to which a medium for pluripotent stem cell (StemFit: from Ajinomoto Co. Inc.) was added, and then cultured. […]
After the elapse of 5 days, the number of cells in each well was measured by using TC20 full-automatic cell counter (from Bio-Rad Laboratories, Inc.), to calculate cell density. […]

[3] = tested on: human pluripotent stem cells; assay: Optical microscope observation of cells on the 5th day of culture in waste-added medium; type: cell-based
Experimental: as §1
The individual cells on the 5th day of culture were observed under an optical microscope. FIG. 6 presents optical microphotographs of the cells cultured in the lactic acid-added medium.
Onto a 24-well plate (Corning cellBIND Surface: from Corning Incorporated), seeded were 1×10^3 human pluripotent stem cells, to which a medium for pluripotent stem cell (StemFit: from Ajinomoto Co. Inc.) was added, and then cultured. To the medium before 24 hours from the start of culture, a culture substrate (iMatrix-511; from Nippi, Inc.) was added so as to adjust the concentration to 0.5 μg/ml, and also ROCK inhibitor (Y-27632: from FUJIFILM Wako Pure Chemical Corporation) was added so as to adjust the concentration to 10 μM. […]

[4] = pH of medium after addition of lactic acid (pH-uncorrected group); type: physicochemical

N [ammonia]
expression level of Pax6 gene (ectoderm differentiation marker) relative to level at 0 mM [1]: nearly ten times
expression level of T gene (mesoderm differentiation marker) relative to level at 0 mM [1]: nearly ten times
ammonia concentration at which cell density sharply decreases [2]: ≥ 10.0 mM
ammonia concentration at which morphological changes of the cell were observed [3]: ≥ 2.5 mM

CC(O)C(=O)O (centres unmarked) [lactic acid]
pH of the medium ([4]; lactic acid concentration 5.0 mM): 6.9
pH of the medium ([4]; lactic acid concentration 7.5 mM): 6.8
pH of the medium ([4]; lactic acid concentration 10 mM): 6.7
pH of the medium ([4]; lactic acid concentration 15 mM): 6.5
